Laboratory results reported in patent US4064132A, “Aroyl-substituted phenylacetamide derivatives” (Janssen Pharmaceutica N.V., priority 1976, dated 1977).
Where two headings read alike, the source gives them in different places.

Columns and labels:
[1] = test system: acetic acid induced writhing; assay: HOAc (acetic acid) induced writhing test in rats; format: in vivo, female Wistar rats; conditions: for ED50: Rattus norvegicus, po; for Potency Ratio: writhing test, compound A vs compound B
Experimental: According to the acetic acid induced writhing test, female Wistar rats (body weight 100±5g) are fasted overnight and injected intraperitoneally with 0.5 ml of a 1% acetic acid solution. Rats with at least 10 writhes within the first 10 minutes following the acetic acid injection are selected and treated five minutes later with an oral dose of the compound under investigation or with the vehicle (control). The number of writhes, i.e. the backward extension of the hind limbs, are counted during a 15 minute experimental session 45 to 60 minutes after the oral treatment. A minimum of three rats are used for each dose level tested.

[2] = test system: mycobacterium butyricum induced arthritis; assay: mycobacterium butyricum induced arthritis test in rats; format: in vivo, male Wistar rats; conditions: for minimal effective dose: Rattus norvegicus, po, 336 h, 14 consecutive days; for Potency Ratio: arthritis test, compound A vs compound B
Experimental: According to the mycobacterium butyricum induced arthritis test, male Wistar rats (body weight 235±15g) are injected intradermally in the tail base with 0.05 ml of an oily suspension of mycobacterium butyricum. The paws and the joint diameters of the hind limbs are measured the day of the injection and a fortnight later. Rats with established arthritis, i.e., significant increase in paw and joint diameters are used for drug testing. Groups of three individually caged animals receive the drug under investigation mixed with the powdered food at different concentrations during 14 consecutive days. After this treatment period, the diameters of the hind limbs are measured again and the effect of drug treatment is evaluated by comparing the final swelling degrees of treated animals with that occurring in untreated controls. The lowest effective dose is that dose whereby a significant decrease of the swelling is observed as compared to untreated control animals.

[3] = table 3, read-out: Writhing test in rats, ED50
[4] = drug in food, table 3, read-out: Mycobacterium butyricum test effective dose
[5] = all-or-none basis of less than 15 writhes per animal per session, table 1, read-out: Oral ED50 (lowest effective oral dose expressed as ED50)
[6] = mixed with the powdered food, significant decrease of swelling vs untreated controls, table 2, read-out: Lowest Effective Dose

Row | Structure (SMILES) | ED50 [1, 3] [mg/kg] | minimal effective dose [2, 4] [mg/kg] | also measured
1 | Cc1cc(C(C)C(=O)O)ccc1C(=O)c1cccs1 (centres unmarked) [p-(2-thenoyl) Me H Me H OH, 3-methyl-4-(2-thenoyl)hydratropic acid] | 5 | 10 | –
2 | CC(C)(C(=O)O)c1ccc(C(=O)c2cccs2)cc1 [p-(2-thenoyl) H H Me Me OH, α-methyl-p-(2-thenoyl)hydratropic acid] | 0.31 | < 10 | –
3 | CC(C(=O)O)c1cccc(C(=O)c2cccs2)c1 (centres unmarked) [m-(2-thenoyl) H H Me H OH, m-(2-thenoyl)hydratropic acid] | 1.25 | – | –
4 | CC(C(=O)O)c1ccc(C(=O)c2ccccc2)cc1 (stereo not drawn) [B, p-benzoyl-α-methylphenylacetic acid, reference compound] | – | – | ED50 [1, 5]: 1.25 mg/kg; Potency Ratio ([1]; table 1): 1/16; minimal effective dose [2, 6]: 10 mg/kg; Potency Ratio ([2]; table 2): 1/16
5 | CC(C(=O)O)c1ccc(C(=O)c2cccnc2)cc1.Cl (centres unmarked) [p-(3-pyridylcarbonyl) H H Me H OH, p-(3-pyridylcarbonyl)hydratropic acid hydrochloride] | 2.5 | 2.5 | –
6 | CCCCCCCCOC(=O)C(C)c1ccc(C(=O)c2cccs2)cc1 (centres unmarked) [p-(2-thenoyl) H H Me H OOct, octyl p-(2-thenoyl)hydratropate] | 0.63 | – | –
7 | CCN(CC)CCOC(=O)C(C)c1ccc(C(=O)c2cccs2)cc1.Cl (centres unmarked) [p-(2-thenoyl) H H Me H O(CH2)2N(Et)2, 2-(diethylamino)ethyl p-(2-thenoyl)hydratropate hydrochloride] | 0.04 | 2.5 | –
8 | Cc1ccc(C(=O)c2ccc(C(C)C(=O)O)cc2)s1 (centres unmarked) [p-(5-Me-2-thenoyl) H H Me H OH, p-(5-methyl-2-thenoyl)hydratropic acid] | 1.25 | 5 | –
9 | Cc1c(CC(=O)O)cccc1C(=O)c1cccs1 [m-(2-thenoyl) H Me H H OH, 2-[3-(2-thenoyl)-o-tolyl]acetic acid] | 10 | 1.25 | –
10 | CC(C(=O)O)c1ccc(C(=O)c2ccc(Cl)s2)cc1 (centres unmarked) [p-(5-chloro-2-thenoyl) H H Me H OH, p-(5-chloro-2-thenoyl)hydratropic acid] | 0.63 | 5 | –
11 | CCC(C(=O)O)c1ccc(C(=O)c2cccs2)cc1 (centres unmarked) [p-(2-thenoyl) H H Et H OH, 2-[p-(2-thenoyl)phenyl]butyric acid] | 0.63 | – | –
12 | CCOC(=O)C(C)c1ccc(C(=O)c2cccs2)cc1 (centres unmarked) [p-(2-thenoyl) H H Me H OEt, ethyl p-(2-thenoyl)hydratropate] | 0.31 | – | –
13 | CC(C(=O)OCCCN(C)C)c1ccc(C(=O)c2cccs2)cc1.O=C(O)C(=O)O (centres unmarked) [p-(2-thenoyl) H H Me H O(CH2)3N(Me)2, 3-(dimethylamino)propylp-(2-thenoyl)hydratropate oxalate] | 0.16 | 2.5 | –
14 | CC(C(=O)O)c1ccc(C(=O)c2ccc3ccccc3c2)cc1 (centres unmarked) [p-(2-naphtoyl) H H Me H OH, p-(2-naphthoyl)hydratropic acid] | 1.25 | 10 | –
15 | CC(C(=O)O)c1ccc(C(=O)c2cccs2)cc1 (stereo not drawn) [A, p-(2-thenoyl)-α-methyl-phenylacetic acid] | – | – | ED50 [1, 5]: 0.08 mg/kg; times more active than compound B (writhing) ([1]; oral): 16 times; Potency Ratio ([1]; table 1): 1; antagonism of mycobacterium butyricum induced arthritis in rats (in words) [2]: powerful antagonist of mycobacterium butyricum induced arthritis in rats; minimal effective dose [2, 6]: 0.63 mg/kg; Potency Ratio ([2]; table 2): 1; times more active than compound B (arthritis) ([2]; drug in food, 14 days): at least 16 times
16 | CC(C(=O)NC1=NCCS1)c1ccc(C(=O)c2cccs2)cc1 (centres unmarked) [p-(2-thenoyl) H H Me H drawing 31] | 2.5 | 10 | –
17 | COc1ccc(NC(=O)C(C)c2ccc(C(=O)c3cccs3)cc2)cc1 (centres unmarked) [p-(2-thenoyl) H H Me H drawing 30] | 10 | < 10 | –
18 | CC(C(=O)OCCN(C)C)c1ccc(C(=O)c2cccs2)cc1.O=C(O)C(=O)O (centres unmarked) [p-(2-thenoyl) H H Me H O(CH2)2N(Me)2, 2-(dimethylamino)ethyl p-(2-thenoyl)hydratropate oxalate] | 0.08 | 2.5 | –
19 | CC(C(=O)NO)c1ccc(C(=O)c2cccs2)cc1 (centres unmarked) [p-(2-thenoyl) H H Me H NHOH, p-(2-thenoyl)hydratropohydroxamic acid] | 1.25 | – | –
20 | CC(C(=O)O)c1ccc(C(=O)c2cccs2)c(Cl)c1 (centres unmarked) [p-(2-thenoyl) Cl H Me H OH, 3-chloro-4-(2-thenoyl)hydratropic acid] | 1.25 | 1.25 | –
21 | C=CCC(C(=O)O)c1ccc(C(=O)c2cccs2)cc1 (centres unmarked) [p-(2-thenoyl) H H allyl H OH, 2-[p-(2-thenoyl)phenyl]-4-pentenoic acid] | 1.25 | 10 | –
22 | CC(C(=O)O)c1ccc(C(=O)c2cccs2)cc1 (single isomer, unassigned; (-)) [p-(2-thenoyl) (-) H H Me H OH, (-)-p-(2-thenoyl)hydratropic acid] | – | – | Writhing test in rats; ED50 ([1]; oral, table 3): 5.0 mg/kg
23 | CC(C(=O)O)c1ccc(C(=O)c2cccs2)cc1 (single isomer, unassigned; (+)) [p-(2-thenoyl) (+) H H Me H OH, (+)-p-(2-thenoyl)hydratropic acid] | – | ≤ 2.5 | Writhing test in rats; ED50 ([1]; oral, table 3): 0.31 mg/kg
